From US20250059196A1 (SHANGHAI HANSOH BIOMEDICAL CO., LTD., priority 2021, published 2025)
Read-outs that look alike come from different tables or passages of the source.

How the values were obtained:
OCI-Ly3 cells = test: Inhibition of proliferation of OCI-Ly3 cells (CellTiter-Glo); type: cell-based, human; conditions: 96 h incubation, read-out: Inhibition test of proliferation of OCI-Ly3 cells IC50
Procedure: The compound's inhibitory effect on the proliferation of TMD8 and OCI-Ly3 cells was evaluated through cell proliferation inhibition experiments.
The compound's inhibitory effect on the proliferation of TMD8 and OCI-Ly3 cells was detected by the CellTiter-Glo method. The highest concentration of the compound detected was 1000 nM, 3-fold dilution, a total of 9 concentrations (1000 nM-0.15 nM). After the cells were plated at an appropriate density, compounds were added the next day and incubated for 96 h before detection using the CellTiter-Glo Luminescent detection kit.
(§1) Log(inhibitor) vs. response—Variable slope (four parameters) in GraphPad Prism 6 was used to perform fitting equation analysis on compound concentration and corresponding inhibition rate, the curve was fit and compound IC50 value was obtained.
(§2) The fitting calculation equation is Y=Bottom+(Top−Bottom)/(1+10^((Log IC50−X)*HillSlope))

[1] = molecular target: MALT1 protease activity in TMD8 cells (substrate BCL-10) (Homo sapiens (Human), UniProt Q9UDY8); test: Intracellular MALT1 protease activity detection (BCL-10 ELISA in TMD8 cells); type: cell-based; conditions: undigested BCL-10 by ELISA, 30 min compound then 2 h stimulation cocktail, read-out: Bcl10 TMD8 IC50
Sequence of MALT1 protease activity in TMD8 cells (substrate BCL-10) (Q9UDY8 whole entry): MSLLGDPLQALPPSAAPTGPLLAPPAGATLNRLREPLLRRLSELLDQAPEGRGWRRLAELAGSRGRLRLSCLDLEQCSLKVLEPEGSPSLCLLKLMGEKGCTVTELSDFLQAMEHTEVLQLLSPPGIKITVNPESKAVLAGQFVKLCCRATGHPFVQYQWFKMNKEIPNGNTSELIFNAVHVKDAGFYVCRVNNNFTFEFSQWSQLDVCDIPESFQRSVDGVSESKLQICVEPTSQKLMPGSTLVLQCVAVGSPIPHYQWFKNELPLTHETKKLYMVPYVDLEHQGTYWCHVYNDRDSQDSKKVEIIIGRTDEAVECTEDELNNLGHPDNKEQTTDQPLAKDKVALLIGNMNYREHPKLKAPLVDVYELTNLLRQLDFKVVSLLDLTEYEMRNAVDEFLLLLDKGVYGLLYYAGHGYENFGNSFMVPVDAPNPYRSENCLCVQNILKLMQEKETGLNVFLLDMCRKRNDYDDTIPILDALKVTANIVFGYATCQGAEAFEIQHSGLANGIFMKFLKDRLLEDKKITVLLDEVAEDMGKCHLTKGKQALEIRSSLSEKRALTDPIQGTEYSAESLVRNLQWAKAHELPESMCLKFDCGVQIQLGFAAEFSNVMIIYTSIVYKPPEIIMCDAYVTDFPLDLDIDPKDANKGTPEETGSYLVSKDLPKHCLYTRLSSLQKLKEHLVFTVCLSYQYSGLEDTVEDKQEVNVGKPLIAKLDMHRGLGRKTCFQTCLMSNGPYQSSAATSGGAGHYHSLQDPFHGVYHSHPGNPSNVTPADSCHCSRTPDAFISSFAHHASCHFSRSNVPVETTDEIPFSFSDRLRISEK
Procedure: By detecting the digestion level of the substrate BCL-10 by MALT1 in TMD8 cells, the inhibitory effect of the compound on MALT1 protease activity in the cellular environment was tested.
The ELISA sandwich method was used to detect the content of undigested BCL-10 protein in cells and determine the inhibitory effect of compounds on intracellular MALT1 protease activity. The highest concentration of the compound detected was 10000 nM, 3-fold dilution, a total of 9 concentrations (10000 nM-1.5 nM). Cells were plated at an appropriate density. Compounds of corresponding concentrations were first added for action for 30 min, and then eBioscience cell stimulation cocktail was added to stimulate the cells for 2 h. Cell lysate was then collected. The cell lysate was added to the assay plate previously coated with recombinant BCL-10 antibody (Abcam, #Ab33905) and incubated at 4° C. overnight. The next day, BCL-10 detection antibody (Santacruz, #Sc-5273HRP) was added and incubated for 2 h, TMB substrate was used for color development for about 30 min, then the color development was terminated, and a microplate reader was used for detection.
2) Curve fitting: Log(inhibitor) vs. response—Variable slope (four parameters) in GraphPad Prism 6 was used to perform fitting equation analysis on compound concentration and corresponding inhibition rate, the curve was fit and compound IC50 value was obtained.
as §2

[2] = Pharmacokinetics of oral administration in Balb/C mice; type: in vivo; conditions: male, mouse, po, 30 mg/kg, P.O., plasma; for AUC(0-t): read-out: AUC 0-t; for Cmax: read-out: Cmax; for MRT: read-out: MRT; for Tmax: read-out: Tmax
Procedure: Balb/C mice were used as test animals to study the pharmacokinetic behavior of the compound in the plasma of mice after oral administration at a dose of 30 mg/kg.
3 Balb/C mice (3/example), male, from Shanghai Jiesijie Experimental Animal Co., Ltd., animal production license number (SCXK (Shanghai) 2013-0006 N0.311620400001794).
3 Balb/C mice, male; p.o. respectively at a dose of 30 mg/kg and an administration volume of 10 mL/kg after the mice were fasted overnight.
Before and after administration of mice, 0.1 mL of blood was collected from the orbit at 0, 0.5, 1, 2, 4, 6, 8 and 24 h, and placed in EDTA-K2 test tubes, which was centrifuged at 6000 rpm at 4° C. for 6 min to separate plasma which was stored at −80° C.
• 1) 160 μL of acetonitrile was added to 40 μL of plasma sample for precipitation, and same was mixed and centrifuged at 3500×g for 5 to 20 min. • 2) 100 μL of the treated supernatant solution was taken and subjected to LC/MS/MS to analyze the concentrations of the test compounds.
• Liquid phase conditions: Shimadzu LC-20AD pump • Mass spectrometry conditions: AB Sciex API 4000 mass spectrometer • Chromatographic column: Phenomenex Gemiu 5 um C18 50×4.6 mm • Mobile phase: liquid A is 0.1% aqueous formic acid solution, liquid B is acetonitrile • flow rate: 0.8 mL/min • Elution time: 0-4.0 min, the eluent is as follows:
The main pharmacokinetic parameters were calculated using WinNonlin 8.2.

[3] = molecular target: Recombinant human MALT1/MLT protein (Homo sapiens (Human), UniProt Q9UDY8); test: Inhibitory effect on MALT1 enzyme activity (Ac-LRSR-AMC substrate, fluorescence 460 nm); type: biochemical; conditions: 10 nM FL MALT1, Ac-LRSR-AMC substrate, 50 min pre-incubation, 4 h reaction
Sequence of Recombinant human MALT1/MLT protein (Q9UDY8 whole entry): as above
Procedure: Ac-LRSR-AMC was used as the substrate to test the IC50 of the inhibitory activity of compounds on MALT1 enzyme activity at their Km concentration.
Ac-LRSR-AMC was used as the substrate which was digested by MALT1 to produce products, which produced fluorescence that could be detected at 460 nm. The highest concentration of the compound detected was 1000 nM, 3-fold dilution, a total of 11 concentrations (1000 nM-0.017 nM). The reaction system is 10 nM FL MALT1 protein, […] Ac-LRSR-AMC, 50 mM Tris pH 7.5, 0.6M Citrate, 1 mM DTT, 1 mM EDTA, 0.05% BSA and 1.5% DMSO. The compound and the enzyme were pre-incubated at room temperature for 50 min. The substrate was then added and the reaction was carried out for 4 h.
The original data (460 nm reading) was calculated according to the following formula to obtain the inhibition rate.
as §1, §2

IC50 (OCI-Ly3 cells; Homo sapiens) [nM] | IC50 [3] [nM] | SMILES | other results
128 |  | N#Cc1cc(-n2ncc(C(=O)Nc3ccnc(C(F)(F)F)c3)c2C(F)(F)F)c2cccc3c2c1NC3=O [Example 92, 1-(8-cyano-2-carbonyl-1,2-dihydrobenzo[cd]indol-6-yl)-5-(trifluoromethyl)-N-(2-(trifluoromethyl)pyridin-4-yl)-1H-pyrazole-4-carboxamide] | 
213 |  | O=C(Nc1ccc(-n2nccn2)c(Cl)c1)c1cnn(-c2cnc3c4c(cccc24)C(=O)N3)c1C(F)(F)F [Example 75, N-(3-chloro-4-(2H-1,2,3-triazol-2-yl)phenyl)-1-(2-carbonyl-1,2-dihydropyrrolo[4,3,2-ij]isoquinolin-6-yl)-5-(trifluoromethyl)-1H-pyrazole-4-carboxamide] | IC50 [1]: 83 nM; AUC(0-inf) [2]: 12200 ng·h/mL; half-life [2]: 3 h; AUC(0-t) [2]: 12200 ng·h/mL; Cmax [2]: 1290 ng/mL; MRT [2]: 5.5 h; Tmax [2]: 2 h
 | 48 | O=C(Nc1cnc(-n2nccn2)c(Cl)c1)c1cnn(-c2ccc3c4c(cccc24)C(=O)N3)c1C(F)F [Example 67, N-(6-(2H-1,2,3-triazol-2-yl)-5-chloropyridin-3-yl)-5-difluoromethyl-1-(2-oxo-1,2-dihydrobenzo[cd]indol-6-yl)-1H-pyrazole-4-carboxamide] | 
234 |  | O=C(Nc1ccc(-n2cccn2)c(C(F)(F)F)c1)c1cnn(-c2cnc3c4c(cccc24)C(=O)N3)c1C(F)(F)F [Example 74, N-(4-(1H-pyrazol-1-yl)-3-(trifluoromethyl)phenyl)-1-(2-carbonyl-1,2-dihydropyrrolo[4,3,2-ij]isoquinolin-6-yl)-5-(trifluoromethyl)-1H-pyrazole-4-carboxamide] | 
87 | 193 | O=C(Nc1cnc(-n2nccn2)c(C(F)(F)F)c1)c1cnn(-c2ccc3c4c(cccc24)C(=O)N3)c1C(F)F [Example 66, N-(6-(2H-1,2,3-triazol-2-yl)-5-trifluoromethylpyridin-3-yl)-5-difluoromethyl-1-(2-oxo-1,2-dihydrobenzo[cd]indol-6-yl)-1H-pyrazole-4-carboxamide] | 
83 |  | O=C(Nc1ccc(-n2cccn2)c(C(F)(F)F)c1)c1cnn(-c2ccc3c4c(cccc24)C(=O)N3)c1C(F)(F)F [Example 51, N-(4-(1H-pyrazol-1-yl)-3-(trifluoromethyl)phenyl)-1-(2-carbonyl-1,2-dihydrobenzo[cd]indol-6-yl)-5-(trifluoromethyl)-1H-pyrazole-4-carboxamide] | 
 | 50 | O=C(Nc1ccc(-n2nccn2)c(C(F)(F)F)c1)c1cnn(-c2cnc3c4c(cccc24)C(=O)N3)c1C1CC1 [Example 83, N-(4-(2H-1,2,3-triazol-2-yl)-3-(trifluoromethyl)phenyl)-5-cyclopropyl-1-(2-oxo-1,2-dihydropyrrolo[4,3,2-ij]isoquinolin-6-yl)-1H-pyrazole-4-carboxamide] | 

Continued, compound first:

SMILES | IC50 (OCI-Ly3 cells; Homo sapiens) [nM] | IC50 [3] [nM] | other results
Cn1ccc(-c2ncc(NC(=O)c3cnn(-c4ccc5c6c(cccc46)C(=O)N5)c3C(F)(F)F)cc2C(F)(F)F)n1 [Example 37, N-(6-(1-methyl-1H-pyrazol-3-yl)-5-(trifluoromethyl)pyridin-3-yl)-1-(2-oxo-1,2-dihydrobenzo[cd]indol-6-yl)-5-(trifluoromethyl)-1H-pyrazole-4-carboxamide] |  | 48 | 
O=C(Nc1ccc(-n2nccn2)c(C(F)(F)F)c1)c1cnn(-c2ccc3c4c(cccc24)C(=O)N3)c1C(F)(F)F [Example 50, N-(4-(2H-1,2,3-triazol-2-yl)-3-(trifluoromethyl)phenyl)-1-(2-oxo-1,2-dihydrobenzo[cd]indol-6-yl)-5-(trifluoromethyl)-1H-pyrazole-4-carboxamide] | 219 | 39 | AUC(0-t) [2]: 54400 ng·h/mL; Cmax [2]: 3020 ng/mL; Tmax [2]: 8 h
O=C(Nc1cnc(-n2cccn2)c(Cl)c1)c1cnn(-c2ccc3c4c(cccc24)C(=O)N3)c1C(F)(F)F [Example 44] |  | 80 | IC50 (OCI-Ly3 cells): 149 nM
O=C(Nc1cnc(-n2cccn2)c(C(F)(F)F)c1)c1cnn(-c2ccc3c4c(cccc24)C(=O)N3)c1C(F)(F)F [Example 31, N-(6-(1H-pyrazol-1-yl)-5-(trifluoromethyl)pyridin-3-yl)-1-(2-carbonyl-1,2-dihydrobenzo[cd]indol-6-yl)-5-(trifluoromethyl)-1H-pyrazole-4-carboxamide] | 206 |  | IC50 [1]: 103 nM; AUC(0-inf) [2]: 197000 ng·h/mL; half-life [2]: 1.9 h; AUC(0-t) [2]: 197000 ng·h/mL; Cmax [2]: 25900 ng/mL; MRT [2]: 4.7 h; Tmax [2]: 2 h
Cc1ncnn1-c1ncc(NC(=O)c2cnn(-c3ccc4c5c(cccc35)C(=O)N4)c2C(F)(F)F)cc1Cl [Example 47] |  | 123 | 
O=C(Nc1cnc(-n2nccn2)c(C(F)(F)F)c1)c1cnn(-c2cnc3c4c(cccc24)C(=O)N3)c1C1CC1 [Example 78, N-(6-(2H-1,2,3-triazol-2-yl)-5-(trifluoromethyl)pyridin-3-yl)-5-cyclopropyl-1-(2-oxo-1,2-dihydropyrrolo[4,3,2-ij]isoquinolin-6-yl)-1H-pyrazole-4-carboxamide] |  |  | IC50 [1]: 67 nM
O=C(Nc1cnc(-c2ncco2)c(C(F)(F)F)c1)c1cnn(-c2ccc3c4c(cccc24)C(=O)N3)c1C(F)(F)F [Example 34, N-(6-(oxazol-2-yl)-5-(trifluoromethyl)pyridin-3-yl)-1-(2-carbonyl-1,2-dihydrobenzo[cd]indol-6-yl)-5-(trifluoromethyl)-1H-pyrazole-4-carboxamide] | 212 |  | 
N#Cc1ccnn1-c1ncc(NC(=O)c2cnn(-c3ccc4c5c(cccc35)C(=O)N4)c2C(F)(F)F)cc1C(F)(F)F [Example 32] | 266 |  | 
O=C(Nc1ccnc(C(F)(F)F)c1)c1cnn(-c2ccc3c4c(cccc24)OC3)c1C(F)(F)F [Example 15, 1-(2H-naphthalene [1,8-bc]furan-5-yl)-5-trifluoromethyl-N-(2-trifluoromethyl-pyridin-4-yl)-1H-pyrazole-4-carboxamide] |  | 169 | 
Cn1cnc(-c2ncc(NC(=O)c3cnn(-c4ccc5c6c(cccc46)C(=O)N5)c3C(F)(F)F)cc2Cl)n1 [Example 45] |  | 123 | 
Cc1nc(-c2ncc(NC(=O)c3cnn(-c4ccc5c6c(cccc46)C(=O)N5)c3C(F)(F)F)cc2C(F)(F)F)oc1C [Example 35, N-(6-(4,5-dimethyloxazol-2-yl)-5-(trifluoromethyl)pyridin-3-yl)-1-(2-carbonyl-1,2-dihydrobenzo[cd]indol-6-yl)-5-(trifluoromethyl)-1H-pyrazole-4-carboxamide] | 263 |  | 
